Laboratory results from article PMC4404333, “Identification of Selective Inhibitors of the Plasmodium falciparum Hexose Transporter PfHT by Screening Focused Libraries of Anti-Malarial Compounds” (PLoS ONE, 2015).
Read-outs that look alike come from different tables or passages of the source.

Experiments:
[1] = system: BJ cell line (human foreskin fibroblasts); test: Mammalian cell drug susceptibility assay (Cell Titer Glo, 72 h); type: cell-based
Procedure: The BJ cell line (human foreskin fibroblasts), which express GLUT1 [26], was purchased from the ATTC and cultured according to recommendations. 1000 exponentially growing cells were plated per well (25 μL) in white polystyrene flat bottom sterile 384-well tissue culture treated plates (Corning), and incubated overnight at 37°C in a humidified 5% CO2 incubator. DMSO inhibitor stock solutions were pin-transferred (V&P Scientific) the following day. Plates were placed back in the incubator for 72 h incubation and equilibrated at room temperature for 20 min before addition of 25 μL Cell Titer Glo (Promega) to each well. Plates were shaken on an orbital shaker for 2 min at 500 rpm. Luminescence was read after 15 min on an Envision plate reader (Perkin Elmer). EC50 values were calculated with a custom program (RISE, Robust Investigation of Screening Experiments) using a four-parameter logistic equation.

[2] = system: P. falciparum strain K1; test: Proliferation of intraerythrocytic P. falciparum K1 (SYBR Green, 72 h); type: cell-based, Plasmodium falciparum; settings: multi-drug resistant strain K1, 72 h, read-out: Pf K1 EC50
Procedure: Two P. falciparum strains were used in this study and were provided by the MR4 Unit of the American Type Culture Collection (ATCC, Manassas, VA). Those two strains were the chloroquine sensitive strain 3D7 and the K1 strain that is resistant to chloroquine, pyrimethamine, and sulfadoxine.
Asynchronous parasites were maintained in culture based on the method of Trager. Parasites were grown in presence of fresh group O-positive erythrocytes (Key Biologics, LLC) in Petri dishes at a hematocrit of 4–6% in RPMI based media (RPMI 1640 supplemented with 0.5% AlbuMAX II, 25 mM HEPES, 25 mM NaHCO3 (pH 7.3), 100 μg/mL hypoxanthine, and 5 μg/mL gentamycin). Cultures were incubated at 37°C in a gas mixture of 90% N2, 5% O2, 5% CO2. For EC50 determinations, 20 μL of RPMI 1640 with 5 μg/mL gentamycin were dispensed per well in an assay plate (Corning 384-well microtiter plate, clear bottom, tissue culture treated, catalog no. 8807BC). 40 nL of compound, previously serially diluted in a separate 384-well white polypropylene plate (Corning, catalog no. 8748BC), was dispensed to the assay plate by hydrodynamic pin transfer (FP1S50H, V&P Scientific Pin Head) and then 20 μL of a synchronized culture suspension (1% rings, 4% hematocrit) was added to each well, thus making a final hematocrit and parasitemia of 2% and 1%, respectively. Assay plates were incubated for 72 h, and the parasitemia was determined by a method previously described: Briefly, 10 μL of the assay solution in PBS (10X SYBR Green I, 0.5% v/v triton X-100, 0.5 mg/mL saponin) was added to each well. Assay plates were shaken for 1 min, incubated in the dark for 90 min, and read with an Envision (Perkin Elmer) spectrophotometer at Ex/Em of 485 nm/535 nm. EC50s were calculated with a custom program (RISE, Robust Investigation of Screening Experiments) using a four-parameter logistic equation.

[3] = Liver microsomes stability assay; type: in vitro ADME, mouse; settings: both sexes, CD-1, pH 7.4; for CLint scaled at 9.8 μM: intrinsic clearance calculated from in vitro t1/2, mouse liver microsomes; for half-life at 9.8 μM: mouse liver microsomes, read-out: Mouse Metabolic Stability t1/2 (converted)
Procedure: The microsomal stability assay was carried out as described. […] Each test compound (2.2 μL of 10 mM DMSO solution) was added directly to 1.79 mL of mouse liver microsomal solution and 90 μL was transferred to wells in 96-well plates (0, 0.25, 0.5, 1, 2, and 4 h time points each in triplicate). The NADPH regenerating agent was prepared by mixing 0.113 mL of NADPH regenerating agent solutions A, 0.023 mL of solution B and 0.315 mL of 0.1 M potassium phosphate buffer (pH 7.4) for each tested compound. To each well of the 96-well plate, 22.5 μL of the NADPH regenerating agent was added to initiate the reaction, and the plate was incubated at 37°C for each time point (0, 0.25, 0.5, 1, 2, and 4 h time points each in triplicate). The reaction was quenched by adding 225 μL of cold acetonitrile containing warfarin (4 μg/mL) as internal control to each well. All of the plates were centrifuged at 3220 g for 20 min and the supernatants (100 μL) were transferred to another 96-well plate for analysis on UPLC—MS (Waters Acquity UPLC linked to Waters Acquity Photodiode Array Detector and Waters Acquity Single Quadrupole Mass Detector) on an Acquity UPLC BEH C18 1.7 μm (2.1x50 mm) column by running 90–5% gradient for water (0.1% formic acid) and acetonitrile (0.1% formic acid) in 2 minutes. The area under the single ion recording (SIR) channel for the test compound divided by the area under the SIR for internal control at 0 time concentration was considered as 100% to calculate remaining concentration at each time point. The terminal phase rate constant (ke) was estimated by linear regression of logarithmic transformed concentration versus time, where ke = slope x(-ln10). The half-life t1/2 was calculated as ln2/ke.

[4] = system: P. falciparum strain 3D7 intraerythrocytic forms; parameters: method as in PubChem web site, http://pubchem.ncbi.nlm.nih.gov/; settings: reported values; ref PubChem web site, http://pubchem.ncbi.nlm.nih.gov/; read-out: EC50 3D7 In vitro; cited from earlier work
[5] = Plasmodium falciparum, K1, 72 h

| Compound | EC50 [1] | EC50 [2, 5] | EC50 [2] | CLint scaled at 9.8 μM [3] | half-life at 9.8 μM [3] | EC50 [4] |
| --- | --- | --- | --- | --- | --- | --- |
| CC1CCCCN1S(=O)(=O)c1ccc2nc(Nc3ccccc3)ccc2c1 (stereo not drawn) [Compound 10] | > 25 µM | > 10 µM | 12 µM | 438 mL/min/kg | 7.8 min | – |
| CC1CCCCN1S(=O)(=O)c1ccc2nc(Nc3cccc(C#N)c3)ccc2c1 (stereo not drawn) [Compound 13] | > 25 µM | > 10 µM | 7.3 µM | 680 mL/min/kg | 4.8 min | – |
| COc1cc(Nc2ccc3cc(S(=O)(=O)N4CCCCC4C)ccc3n2)cc(OC)c1OC (stereo not drawn) [Compound 1] | > 23 µM | ~1 µM | 0.97 µM | 213 mL/min/kg | 16.2 min | 1.24 µM |
| CC1CCCCN1S(=O)(=O)c1ccc2nc(Nc3ccc(C#N)cc3)ccc2c1 (stereo not drawn) [Compound 12] | > 26 µM | > 10 µM | > 16 µM | 178 mL/min/kg | 19.2 min | – |
